According to ChEMBL document CHEMBL1130887, “Serine derived NK1 antagonists. 2: A pharmacophore model for arylsulfonamide binding” (Bioorg Med Chem Lett, 1998):

Target: Substance-P receptor (Homo sapiens, UniProt P25103)
Assay: Displacement of [125I]-substance P from hNK1 receptor in chinese hamster ovarian (CHO) cells
Type: cell-based

Substance-P receptor, sequence (P25103 whole entry): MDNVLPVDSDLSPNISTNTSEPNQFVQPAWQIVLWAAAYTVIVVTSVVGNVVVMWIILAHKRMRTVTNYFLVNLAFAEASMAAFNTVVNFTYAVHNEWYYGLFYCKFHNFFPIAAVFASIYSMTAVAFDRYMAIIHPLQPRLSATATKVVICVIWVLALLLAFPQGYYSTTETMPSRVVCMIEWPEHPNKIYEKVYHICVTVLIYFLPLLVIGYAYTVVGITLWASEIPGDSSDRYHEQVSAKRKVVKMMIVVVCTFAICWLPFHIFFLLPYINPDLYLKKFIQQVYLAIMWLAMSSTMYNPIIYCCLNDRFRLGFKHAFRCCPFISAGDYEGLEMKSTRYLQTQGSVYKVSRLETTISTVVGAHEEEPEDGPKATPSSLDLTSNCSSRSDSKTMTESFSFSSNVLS

SMILES | IC50 [nM]
CS(=O)(=O)NCC1(c2ccccc2)CCN(C(=O)[C@H](COCc2ccc(Cl)c(Cl)c2)NCc2ccccc2)CC1 | 382
Cc1ccccc1N1CCN(C(=O)[C@H](COCc2ccc(Cl)c(Cl)c2)NCc2ccccc2)CC1 | 558
CS(=O)(=O)N(CC1CCN(C(=O)[C@H](COCc2ccc(Cl)c(Cl)c2)NCc2ccccc2)CC1)c1ccccc1 | 547
O=C([C@H](COCc1ccc(Cl)c(Cl)c1)NCc1ccccc1)N1CCC2(CCc3ccccc32)CC1 | 602
Cc1ccccc1C1CCN(C(=O)[C@H](COCc2ccc(Cl)c(Cl)c2)NCc2ccccc2)CC1 | 330
CS(=O)(=O)N1CCC2(CCN(C(=O)[C@H](COCc3ccc(Cl)c(Cl)c3)NCc3ccccc3)CC2)C1 | 2500

Now those with a lower IC50, led by results:

IC50 [nM] | SMILES
263 | COc1ccccc1C1CCN(C(=O)[C@H](COCc2ccc(Cl)c(Cl)c2)NCc2ccccc2)CC1
61 | CN(c1ccccc1C1CCN(C(=O)[C@H](COCc2ccc(Cl)c(Cl)c2)NCc2ccccc2)CC1)S(C)(=O)=O
13 | COc1ccccc1N1CCN(C(=O)[C@H](COCc2ccc(Cl)c(Cl)c2)NCc2ccccc2)CC1
4.8 | CS(=O)(=O)Nc1ccccc1N1CCN(C(=O)[C@H](COCc2ccc(Cl)c(Cl)c2)NCc2ccccc2)CC1
17 | CS(=O)(=O)Nc1ccccc1C1CCN(C(=O)[C@H](COCc2ccc(Cl)c(Cl)c2)NCc2ccccc2)CC1
1 | CS(=O)(=O)N1CC2(CCN(C(=O)[C@H](COCc3ccc(Cl)c(Cl)c3)NCc3ccccc3)CC2)c2ccccc21
